{"source": "patent US10092586B2", "about": "“Glycolipid containing compositions for use in the treatment of tumors” (Agalimmune Limited (GB/GB), priority 2014, dated 2018)", "key": {"[1]": {"system": "CHO-K1 cells", "experiment": "Complement deposition assay (flow cytometry), human serum", "assay_type": "cell-based", "conditions": "500 μg/ml, 2.5% human serum", "method": "(§1) 1×10^6 B16-F10 and CHO-K1 cells were harvested from growing cultures and incubated with 500 μg/ml αGal BOEL in PBS for 1 hour at 37° C., after which the cells were washed 3 times with PBS. After washing the CHO-K1 cells were incubated with either 2.5% normal (NHS) or heat-inactivated (HI NHS) human serum for 10 minutes at 37° C. The B16-F10 cells were incubated with either 2.5% serum from normal GT−/− mice (NMS) or 2.5% serum from pig kidney homogenate immunised mice (I NMS) for 10 minutes at 37° C. The cells were placed on ice and washed twice with ice-cold cell staining buffer (PBS+0.1% BSA). The cells were incubated with either anti-C3b (C3b, Pierce MAI-70054, diluted 1:1000 in cell staining buffer) or anti-SC5b-9 (MAC, Quidel A239, diluted 1:100 in cell staining buffer) for 30 minutes on ice. The cells were washed twice with ice cold cell staining buffer and incubated with FITC goat anti-mouse IgG (Abcam ab97022, diluted 1:2000 in cell staining buffer) for 30 minutes on ice. After 2 further washes with ice-cold cell staining buffer the cells were resuspended in ice-cold cell staining buffer plus 7-AAD (Biolegend 420403). The cells were analysed using a Beckman Coulter Cytomics FC500 flow cytometer, with data captured in the FL-1 channel. Data on the histograms presented are gated on live cells."}, "[2]": {"system": "B16-F10 cells", "experiment": "Complement deposition assay (flow cytometry), mouse serum", "assay_type": "cell-based", "conditions": "B16 mouse melanoma cells, 500 μg/ml, 2.5% mouse serum", "method": "as §1"}, "[3]": {"system": "B16-F10 melanoma cells", "experiment": "GT KO mouse melanoma model, distal tumour development", "assay_type": "in vivo", "method": "FIG. 7: Dose titration experiments with α-Gal BOEL. Anti-Gal producing GT KO mice were injected with 1×10^6 B16-F10 melanoma cells for primary tumour growth on their right flanks and 1×10^4 B16-F10 cells for secondary/distal tumour injection on the opposite flank. 5 days later, the main tumours were intra-tumourally treated with PBS (open circles), or 0.1 mg α-Gal BOEL (open triangles), or 0.5 mg α-Gal BOEL (closed triangles), or 1 mg of α-Gal BOEL (closed circles). The development of visible distal tumours as model for metastases development was followed for up to 32 days. The percentages of mice without visible distal tumours are plotted in the graphs. Statistical differences between the groups were determined by log-rank test.\nFIG. 8: α-Gal BOEL activity in anti-Gal producing mice (i.e mice immunized with pig kidney membranes) or mice lacking anti-Gal (i.e. non-immunized mice). Hyper-immunized or non-immunized GT KO mice were injected with 1×10^6 B16-F10 cells for primary tumour growth on their right flanks and either 1×10^4 B16-F10 cells for secondary/distal tumour injection on the opposite flank. 4 days later, the main tumours were intra-tumourally treated with PBS in hyper-immunized mice (open circles), or 1 mg α-Gal BOEL (closed circles for hyper-immunized mice; open squares for non-immunized mice). The development of visible distal tumours as model for metastases development was followed for up to 28 days. The percentages of mice without visible distal tumours are plotted in the graph. Statistical differences between the groups were determined by log-rank test.\nIn vivo pharmacodynamics experiments were conducted to assess the effects of α-Gal BOEL in a GT KO mouse melanoma model with B16-F10 melanoma cells. […] As a result, the GT KO mice can be immunized with pig kidney membrane homogenate to produce titers of IgG and IgM anti-Gal antibodies that are similar to those seen naturally in humans. Such an immune response is induced since pig kidney membranes contain a high concentration of α-Gal epitopes on cell membranes and in intercellular matrix.\nIn the B16-F10 melanoma model, mice were injected with cultured B16-F10 cells on both flanks, on one side they were injected with 1×10^6 melanoma cells to create a primary tumour and with a reduced cell number on the contra-lateral flank (1×10^4 melanoma cells) to create a model of a ‘distant metastasis’ also referred to as secondary tumour. Primary tumours are injected intratumourally with α-Gal BOEL or vehicle control when a predefined tumour diameter is reached. The critical endpoint recorded is growth of the ‘distant’ tumour; this is used to measure the ability of an agent to elicit an effective protective anti-tumour immune response throughout the body. Doses from 0.1-2.5 mg of α-Gal BOEL were tested."}, "[4]": {"system": "monoclonal mouse anti-Gal IgM (M86 hybridoma supernatant)", "experiment": "ELISA to demonstrate binding to anti-Gal antibodies", "conditions": "α-Gal BOEL dried in ELISA wells, serial dilution from 2 mg/ml", "method": "A 96-well plate is first coated with α-Gal BOEL (obtained from Sigma as FSL-Galili(tri)™, Catalogue No. F9432). 50 μL PBS is added to each well. α-Gal BOEL is resuspended in PBS to a concentration of 2 mg/ml and 50 μL added to a well. Serial dilutions are performed by transferring 50 μL into wells across the plate making sure that each well is thoroughly mixed before transfer. The plate is left overnight to dry.\n150 μL of blocking buffer (1×PBS/1% BSA) is added to the dry wells. The plate is covered and incubated at 37° C. for 2 hours. The well contents are discarded and the wells washed with PBS. 50 μL of the primary anti-Gal antibody (monoclonal mouse anti-Gal IgM in this example, M86 hybridoma supernatant) is added to each well. The plate is incubated at room temperature for 2 hours. The plate is washed 3 times with 200 μL washing buffer (1×PBS, 0.05% Tween).\n50 μL of secondary goat anti-mouse IgM-HRP solution (Accurate Chemical; Catalogue No. JGM035020) is added to each well. The plate is covered and incubated at room temperature for 1 hour and then is washed 3 times with 200 μL washing buffer. 100 μL of a standard OPD (o-Phenylenediamine dihydrochloride) solution (e.g. Sigma; Catalogue No. P8287) is added to each well, incubated for 5 minutes and then 50 μL of stop solution (1 M sulfuric acid) is added. The well absorbances are immediately read at 492 nm (A492) (see FIG. 2)."}, "[5]": {"system": "CHO-K1 cells", "experiment": "Complement dependent cell cytotoxicity/cell lysis (CDC) assay", "assay_type": "cell-based", "method": "The assays below quantify both the amount of α-Gal BOEL inserted into the cell plasma membranes and the functional impact of α-Gal BOEL insertion in stimulating anti-Gal mediated complement-dependent cytotoxicity (CDC). α-Gal BOEL is titrated and incubated with CHO-K1 cells. These cells are either fixed and used in a whole cell ELISA assay, to determine incorporation of α-Gal into membranes, or incubated with anti-Gal antibody and human serum to measure CDC (or general cytotoxicity in the absence of complement from human serum).\n(§2) α-Gal BOEL is titrated as follows. One 40 μl aliquot of α-Gal BOEL (2 mg/ml (obtained from Sigma as FSL-Galili(tri)™, Catalogue No. F9432)) is thawed and sonicated for 30 seconds. 40 μl of phosphate buffered saline (PBS) is added to the tube and vortexed for 10 seconds. 25 μl of this mix is added to 55 μl of PBS and mixed well. These dilutions are repeated to give a full titration of α-Gal BOEL in the desired concentration range.\nCHO-K1 cells, which lack α-Gal epitopes, are resuspended in Dulbecco's PBS (DPBS) at 37° C. and centrifuged at 1000 rpm for 5 minutes. […]\n(§3) An aliquot of the cell suspension (45 μl) is transferred to all tubes of α-Gal BOEL and mixed gently by inversion and incubated for 30 minutes at 37° C. […] The cell suspension (25 μl) is transferred either to an assay plate (standard white 96-well plate for luminescence readout (available from Corning)) to perform the CDC assay (A) or 50 μl transferred to a poly-d-lysine coated plate (available from Sigma) for the in-cell ELISA (B) to measure incorporation into cell membranes.\nAnti-Gal antibody (from a range of sources, mouse anti-Gal containing plasma in this example) is added (25 μl/well) to the CDC assay plate (A) and then incubated for 30 minutes at 37° C. […] The human serum (containing active complement) is diluted in warm media (to a pre-determined level by titration in the assay) and 50 μl added to each well. […] This reagent luminescence is proportional to the […]. […] Luminescence output is measured using a standard 96-well plate reader (see FIG. 3)."}, "[6]": {"system": "CHO-K1 cells", "experiment": "In-cell ELISA to measure incorporation of α-Gal BOEL into cells", "assay_type": "cell-based", "conditions": "CHO-K1 cells incubated 30 minutes at 37° C.; M86 primary antibody", "method": "as §2\n(§4) CHO-K1 cells, which lack α-Gal epitopes, are resuspended in Dulbecco's PBS (DPBS) at 37° C. and centrifuged at 1000 rpm for 5 minutes. The supernatant is aspirated and the cell pellet resuspended to 1×10^7 cells/ml in 450 μl DPBS (37° C.). The cell pellet is washed again to remove all traces of serum.\nas §3, with “membranes. […]” for “membranes.”\n100 μL/well of TMB Substrate is added the plate incubated at room temperature, protected from light. […] The absorbance at 450 nm is measured within 30 minutes of stopping the reaction (see FIG. 5)."}, "[7]": {"system": "CHO-K1 cells", "experiment": "General cellular toxicity (CDC procedure without human serum)", "assay_type": "cell-based", "conditions": "absence of human serum; up to 500 μg/ml; CellTitreGlo", "method": "as §2, §4\nas §3, with “membranes. […]” for “membranes.”\nGeneral cellular toxicity was measured by following the CDC assay procedure above but replacing human serum with pre-warmed media. […]"}}, "note": "Several values for one entry are separate records, joined by “and”; a condition that tells them apart may be missing. Identical values can stand only once. Like-named read-outs stand apart in the source and are kept apart here.", "data": [{"smiles": "CCCCCCCC/C=C\\CCCCCCCC(=O)OC[C@H](COP(=O)(O)OCCNC(=O)CCCCC(=O)NCCCO[C@@H]1OC(CO)[C@@H](O[C@@H]2OC(CO)[C@H](O)[C@H](O[C@H]3OC(CO)[C@H](O)[C@H](O)C3O)C2O)[C@H](O)C1NC(C)=O)OC(=O)CCCCCCC/C=C\\CCCCCCCC", "note": "(stereo partly drawn) [α-Gal BOEL, (9Z,9′Z)-(2R)-3-(((2-(6-((3-(((2R,3R,4R,5S,6R)-3-acetamido-5-(((2S,3R,4S,5S,6R)-3,5-dihydroxy-6-(hydroxymethyl)-4-(((2R,3R,4S,5R,6R)-3,4,5-trihydroxy-6-(hydroxymethyl)tetrahydro-2H-pyran-2-yl)oxy)tetrahydro-2H-pyran-2-yl)oxy)-4-hydroxy-6-(hydroxymethyl)tetrahydro-2H-pyran-2-yl)oxy)propyl)amino)-6-oxohexanamido)ethoxy)(hydroxy)phosphoryl)oxy)propane-1,2-diyl bis(octadec-9-enoate)]", "values": [{"measurement": "deposition of complement protein C3b", "setting": "[1]", "value": "leads to the deposition"}, {"measurement": "deposition of complement protein MAC", "setting": "[1]", "value": "leads to the deposition"}, {"measurement": "deposition of complement protein C3b", "setting": "[2]", "value": "leads to the deposition"}, {"measurement": "deposition of complement protein MAC", "setting": "[2]", "value": "leads to the deposition"}, {"measurement": "mice protected from secondary tumour development", "setting": "[3]; 1 mg intratumoural, anti-Gal producing (immunized) GT KO mice, up to 28 days", "value": 80, "unit": "%"}, {"measurement": "degree of protection versus 0.1-mg and 0.5-mg doses", "setting": "[3]; 1 mg intratumoural, anti-Gal producing GT KO mice, up to 32 days", "value": "higher degree of protection"}, {"measurement": "protective activity against secondary tumour development", "setting": "[3]; 1 mg intratumoural, non-immunized GT KO mice (lacking anti-Gal)", "value": "lacked protective activity"}, {"measurement": "activity response across doses (protection from distal tumour)", "setting": "[3]; 0.1-mg to 1-mg intratumoural doses in 100 μL vehicle, side-by-side, anti-Gal producing GT KO mice", "value": "dose-dependent activity response"}, {"measurement": "binding of monoclonal anti-Gal antibody (A492)", "setting": "[4]", "value": "binds to α-Gal epitopes on the α-Gal BOEL molecules"}, {"measurement": "EC50", "setting": "[5]; Cricetulus griseus, CHO-K1, inhibition of CDC, CHO-K1 cells, mouse anti-Gal plasma, human serum, CellTiterGlo, single independent experiment, read-out: EC50", "value": 1.36, "unit": "mg/L"}, {"measurement": "EC50", "setting": "[5]; Cricetulus griseus, CHO-K1, inhibition of CDC, over 4 independent experiments, read-out: Geomean / mean EC50", "value": 1.35, "unit": "mg/L"}, {"measurement": "EC50", "setting": "[5]; inhibition of CDC, CHO-K1 cells, mouse anti-Gal plasma, human serum, CellTiterGlo, single independent experiment", "value": "1.24 mg/L and 1.38 mg/L and 1.43 mg/L"}, {"measurement": "incorporation into cells (absorbance at 450 nm)", "setting": "[6]", "value": "can be detected on the surface of CHO-K1 cells"}, {"measurement": "impact on cell viability / overt cytotoxicity", "setting": "[7]", "value": "no impact on cell viability"}]}]}
